Patent publication US20240299400A1, “Transcription Factor GLI1 Inhibitors and Uses Thereof” (University of Connecticut, priority 2023, published 2024)

Assays:
[1] = test system: GLI1 mRNA expression; assay: RT-qPCR GLI1 mRNA expression in Sufu-KO MEFs; type: cell-based, mouse; conditions: Mus musculus
[2] = test system: GLI2 protein expression; assay: Western blot GLI2 protein expression in ASZ001 cells; type: cell-based, murine; conditions: 25 μM
Experimental: (§1) ASZ001 cells were plated as described above and treated with drugs or vehicle control. Following incubation, cells were washed with chilled PBS and lysed with RIPA buffer containing […] PMSF protease inhibitor (Thermo Scientific #26978). Supernatant was collected following 15 min centrifugation at 12,000 rpm and 4° C. Protein concentrations from cell extracts were determined through the BCA kit (Pierce #23228) per the manufacturer's instructions. Proteins from either cell lysate or cell-free biochemical assay were then loaded on 12% SDS-PAGE. Following electrophoresis, proteins were transferred onto nitrocellulose membrane at 100 V for 120 min at 4° C. On a clean tray with constant gentle shaking, the membrane was sequentially submerged in 5% BSA for 1 h, and incubated with the primary antibody indicated overnight at 4° C. After washes with TBST, the appropriate secondary antibody was added to the tray for a 2 h incubation at RT. Chemiluminescent detection on film was visualized using ECL reagents (BioRad #1705060) and subsequently quantitated using Image J (http://imagej.nih.gov). Primary antibodies were used at 1:2000 dilution and are as follows: GLI1 (#MA5-32553); Gli2 (#PA5-79314); β-Actin (#PA1-16889). Secondary antibody (Goat anti-Rabbit, #32460) was used at a 1:5000 dilution. All antibodies were purchased from Invitrogen.

[3] = test system: Gli2 mRNA expression; assay: RT-qPCR Gli2 mRNA expression in ASZ001 cells; type: cell-based, mouse; conditions: 10 μM
Experimental: (§2) ASZ001 and Sufu-KO cells were seeded in 96-well plates (10,000/well, 100 μL) and incubated overnight under growth conditions. On the second day, ‘growth’ media was removed and replaced by ‘assay’ media (100 μL). On the third day, cells were treated with a serial dilution of drugs or DMSO for 48 h. mRNA expression was determined through Taqman Fast Cells-to-CT Kit (#4399003) per the manufacturer's instructions. In brief, cells were washed with chilled PBS, then mixed with lysis solution containing DNase I and incubated at RT for 5 min. Stop solution was then added to quench the lysis reagents. cDNA was then synthesized through a BioRad MyCycler following addition of reverse transcriptase. Finally, the cDNA was amplified through an ABI 7500 system following addition of Taqman Fast Universal PCR Master Mix and Taqman Gene Expression Primer. Relative gene expression levels were computed by the ΔΔCt method. Values represent mRNA expression relative to DMSO control (set at 1.0). Data were analyzed using GraphPad Prism, and IC50 values are the mean±SEM for at least two separate experiments performed in triplicate. Primers used are as follows: mouse ActB (Mm00607939_s1); mouse GLI1 (Mm00494645_ml); mouse Gli2 (Mm01293117_ml); mouse Ptch1 (Mm00436026_ml); mouse Hhip (Mm00469580_ml).

[4] = test system: GLI1 protein levels; assay: Western blot GLI1 protein expression in ASZ001 cells; type: cell-based, murine; conditions: 25 μM
Experimental: as §1

[5] = test system: PANC-1 (pancreatic); assay: MTS anti-proliferative assay in PANC-1 cells; type: cell-based; conditions: Homo sapiens, PANC-1; Table 8, 48 h, mean ± SEM
Experimental: (§3) Cell viability was assessed by MTS proliferation assay kit (Promega) per manufacturer's protocol. Briefly, 2×10^4 cells were plated in a 96-well plate in 100 μL growth medium to make the cell population at ˜80% confluence. After 24 h, 1 μL drug solution was added to each well. DMSO was used as vehicle compound. After 48 h incubation (37° C., 5% CO2), 20 μL of freshly prepared 3-(4,5-dimethylthiazol-2-yl)-5-(3-carboxymethoxyphenyl)-2-(4-sulfophenyl)-2H-tetrazolium (MTS)/phenazine methosulfate (PMS) solution was added to each well, and the plate was returned to the incubator for 1 h. Absorbance at 490 nm was recorded, and the result was analyzed by GraphPad Prism 5. GI50 values represent mean±SEM for at least two separate experiments performed in triplicate.

[6] = test system: Ptch1 mRNA expression; assay: RT-qPCR Ptch1 mRNA expression in ASZ001 cells; type: cell-based, mouse; conditions: FIG. 4A
Experimental: as §2

[7] = test system: GLI1 mRNA expression; assay: RT-qPCR GLI1 mRNA expression in ASZ001 BCC cells; type: cell-based, mouse; conditions: Mus musculus
[8] = test system: DAOY (MB); assay: MTS anti-proliferative assay in DAOY cells; type: cell-based; conditions: Homo sapiens, Daoy; Table 8, 48 h, mean ± SEM
Experimental: as §3

[9] = test system: ASZ001 cells; assay: MTS anti-proliferative assay in ASZ001 cells; type: cell-based, murine; conditions: Mus musculus, ASZ001; Table 5, 48 h, Ave ± SEM
[10] = test system: GLI1 mRNA expression; assay: RT-qPCR GLI1 mRNA expression in OHCs-stimulated C3H10T1/2 MEFs; type: cell-based, mouse; conditions: for IC50: Mus musculus
Experimental: as §2
C3H10T1/2 MEFs were seeded in 24-well plates (50,000/well, 500 μL). Following 24 h incubation, the ‘growth’ media was removed and replaced with ‘assay’ media (500 μL). On the third day, cells were treated with either DMSO, OHCs, or OHCs+drugs. Following a 24 h incubation, gene expression analysis was carried out following identical protocols as described above.

[11] = biological target: T1, GLI1-ZFD (Homo sapiens, UniProt P08151); assay: Microscale thermophoresis (MST) binding to GLI1-ZFD
T1 construct: GLI1-ZFD Expression and Purification; made in house
T1 sequence (P08151 234-388 limits assumed): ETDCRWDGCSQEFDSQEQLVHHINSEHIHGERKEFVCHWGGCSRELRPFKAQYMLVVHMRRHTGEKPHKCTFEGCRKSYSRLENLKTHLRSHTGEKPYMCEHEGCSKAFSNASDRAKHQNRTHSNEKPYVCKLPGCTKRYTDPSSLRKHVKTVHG
Experimental: The protein expression and purification experiments followed the previous reported procedures [C. A. Maschinot, et al., Synthesis and evaluation of third generation vitamin D3 analogues as inhibitors of hedgehog signaling. Euro. J. Med. Chem. 162 (2019) 495-506].
GLI1 protein labeling was performed through the Monolith Protein Labeling Kit RED-NHS 2nd Generation (Nanotemper #MO-LO11) per the manufacturer's instructions. Briefly, GLI1 (100 μg, 1 mg/mL) underwent buffer exchange to remove incompatible ingredients like Tris or DTT. Proteins in the Labeling Buffer were incubated with freshly prepared dye (˜3-fold excess of dye) for 30 min at RT in the dark. Unreacted ‘free’ dye was removed by a gel-filtration column. Protein concentration and degree-of-labeling were calculated by measuring absorption at 280 nm and 650 nm. For each assay, 200 nM GLI1 in MST Buffer was mixed with compound dilution in DMSO (DMSO<5%, v/v). The mixture was then loaded to a capillary and the thermophoresis was subsequently determined through Monolith NT.115 station. Results were analyzed by MO.Affinity Analysis software and visualized by Graphpad Prism. MST Buffer: 50 mM HEPES, pH 8.3, 100 mM NaCl.

Molecule CCN(CC)c1ccc(C(Nc2ccccn2)c2ccc3ccc(C)nc3c2O)cc1 (stereo not shown) [Compound 1] has an IC50 ([1]; Table 2, mean ± SEM, read-out: GLI1 mRNA expression, IC50 Sufu-KO) of 1500 ± 500 nM, an IC50 ([1]; Table 4, racemates and enantiomers, mean ± SEM, read-out: RT-qPCR, IC50 Sufu-KO) of 1500 ± 500 nM and an IC50 ([1]; Table 5, GLI1 mRNA, Ave ± SEM, read-out: RT-qPCR, IC50 Sufu-KO) of 1500 ± 500 nM. For the same molecule, the “GLI2 protein expression (in words)” value [2] was “significantly suppressed”, the “inhibition of Gli2 mRNA expression, rank (in words)” value [3] was “most active” and the “GLI1 protein levels (in words)” value [4] was “significantly down-regulated”. For the same molecule, the GI50 [5] was 21.1 ± 4.2 µM, the “Ptch1 mRNA expression (in words)” value [6] was “significantly down-regulated” and the IC50 ([7]; ASZ001, Table 2, mean ± SEM, read-out: GLI1 mRNA expression, IC50 ASZ001) was 1300 ± 700 nM. The IC50 ([7]; ASZ001, Table 4, racemates and enantiomers, mean ± SEM, read-out: RT-qPCR, IC50 ASZ001) was 1300 ± 700 nM, the IC50 ([7]; ASZ001, Table 5, GLI1 mRNA, Ave ± SEM, read-out: RT-qPCR, IC50 ASZ001) was 1300 ± 700 nM and the GI50 [8] was 14.1 ± 2 µM. The GI50 [9] was 13800 ± 3400 nM, the “% Gli1 Expression” value ([10]; C3H10T1/2 MEFs, 10 μM, relative to Hh-agonist OHCs (set as 100%), mean ± SEM) was 5.9 ± 0.5% and the IC50 ([10]; C3H 10T1/2, Table 2, mean ± SEM, read-out: GLI1 mRNA expression, IC50 C3H10T1/2) was 260 ± 160 nM. For the same molecule, the IC50 ([10]; C3H 10T1/2, Table 4, racemates and enantiomers, mean ± SEM, read-out: RT-qPCR, IC50 C3H10T1/2) was 260 ± 160 nM, the Kd ([11]; Table 2, mean ± SEM) was 13400 ± 4000 nM and the Kd ([11]; Table 4, mean ± SEM) was 13400 ± 4000 nM. It also gave a Kd ([11]; Table 5, Ave ± SEM) of 13800 ± 3400 nM.
